# Reference: patent US20250121000A1, “INHALABLE BICARBONATE COMPOSITIONS AND DELIVERY SYSTEMS THEREFOR” (Nebulize Performance Inc., priority 2023, published 2025)
# Like-named read-outs stand apart in the source and are kept apart here.
# What was measured:
# [1] = upwards of / over 20 grams, literature studies, cited from earlier work
# [2] = for gastrointestinal discomfort or side effects / self-reported breathing difficulties (chest tightness, shortness of breath, respiratory difficulty) and nausea: inhaled nebulized 3.5% sodium bicarbonate; for self-reported breathing difficulties (chest tightness, shortness of breath, respiratory difficulty) and nausea: all participants
# Description: A randomized, single-blinded, crossover design was used. Participants completed a repeated sprint exercise protocol to total exhaustion in an indoor facility after inhaling 20 mL of a 3.5% sodium bicarbonate solution (700 mg) dissolved in water or a placebo (pure water) prior to the sprint test. Participants inhaled the solutions through a commercially available nebulizer (Pari Vios Nebulizer System™) for 30 min while seated at rest over 5 bouts of 6 min (4 mL/bout) prior to completing the first sprint set and were required to breathe the same solution for 60 seconds in between each set (described below).
# The order of placebo or bicarbonate was assigned with a numbering system of 1 and 2 respectively, where half of the participants were randomly assigned a 1-2 vs 2-1 order with each trial separated by one week. Following the last trial, participants were asked to guess the order of trials. […] Participants were also asked to describe any noticeably breathing difficulties including chest tightness, shortness of breath or any sign of respiratory difficulty, as well as nausea.
# [3] = inhaled 3.5% sodium bicarbonate, sets 1-4, p<0.05
# [4] = participants that completed more than 4 sprint sets, non-significant trend
compound,measurement,setting,value
O=C([O-])O.[Na+] [sodium bicarbonate],faster sprint times after oral ingestion,[1]; listed as bicarbonate,≤ 5%
same,faster sprint times after oral ingestion,[1],< 5%
same,"average improvement in sprint time vs placebo, first half of each set (shuttle sprints 1-3)",[2]; [3],3.5%
same,"improvement in average sprint time vs placebo, sprints 4-6 of each set",[2]; [3],4.5%
same,"decrease in average sprint time vs placebo, overall (sprints 1-6 of each set)","[2]; inhaled 20 mL of 3.5% sodium bicarbonate solution (700 mg) by nebulizer plus 60 s between sets, 4 sets of 6x40 m sprints, p<0.05",4.1%
same,gastrointestinal discomfort or side effects,[2],no participants experienced any symptoms of gastrointestinal discomfort or side effects
same,"self-reported breathing difficulties (chest tightness, shortness of breath, respiratory difficulty) and nausea",[2],free of any such distress
same,"self-reported breathing difficulties (chest tightness, shortness of breath, respiratory difficulty) and nausea",[2]; listed as nebulized bicarbonate,free of respiratory distress
same,gastrointestinal discomfort or side effects,[2]; listed as Nebulized bicarbonate,without detrimental side effects
same,improvement in performance (faster time) in sprint set 5,[2]; [4],5%
same,improvement in performance (faster time) in sprint set 6,[2]; [4],7%
